Measured values as given in article PMC7948413 (The Journal of Biological Chemistry, 2021).

Biological target: T1, cytosolic phosphoenolpyruvate carboxykinase (PCK1) (Rattus norvegicus, UniProt P07379)
T1 sequence (P07379 1-622): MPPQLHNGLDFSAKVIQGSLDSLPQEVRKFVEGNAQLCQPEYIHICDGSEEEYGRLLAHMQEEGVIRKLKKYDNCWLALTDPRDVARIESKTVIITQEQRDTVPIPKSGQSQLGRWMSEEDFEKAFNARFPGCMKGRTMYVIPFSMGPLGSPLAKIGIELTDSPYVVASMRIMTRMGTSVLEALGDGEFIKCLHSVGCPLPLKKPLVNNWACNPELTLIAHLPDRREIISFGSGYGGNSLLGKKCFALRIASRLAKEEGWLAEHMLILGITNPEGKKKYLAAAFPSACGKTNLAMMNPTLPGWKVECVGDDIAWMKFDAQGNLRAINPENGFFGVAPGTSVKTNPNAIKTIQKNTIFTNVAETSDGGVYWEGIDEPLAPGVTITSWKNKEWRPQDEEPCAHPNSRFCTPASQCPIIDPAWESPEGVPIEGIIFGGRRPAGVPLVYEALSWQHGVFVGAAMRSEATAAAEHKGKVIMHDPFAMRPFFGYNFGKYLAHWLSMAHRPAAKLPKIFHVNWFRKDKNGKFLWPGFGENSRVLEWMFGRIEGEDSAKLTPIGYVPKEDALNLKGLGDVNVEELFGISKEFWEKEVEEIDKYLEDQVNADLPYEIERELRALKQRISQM
Test: STD NMR and DEEP-STD NMR
Assay type: binding

How did the “STD NMR and DEEP-STD NMR” value turn out when `CC(C)(COP(=O)(O)OP(=O)(O)OC[C@H]1O[C@@H](n2cnc3c(N)ncnc32)[C@H](O)[C@@H]1OP(=O)(O)O)[C@@H](O)C(=O)NCCC(=O)NCCS` [coenzyme A] was run?
The value was “STD NMR experiments showed clear STD signals for both, acetyl-CoA and CoA (see Fig. S4), confirming that they bind to PCK1”.
